Legend:
[1] = tested on: human periodontal ligament cells (hPDLCs); test: Cell viability (MTT) of hPDLCs; format: cell-based; settings: Day 1 (24 h)
[2] = cited from earlier work
[3] = tested on: human periodontal-ligament fibroblasts (hPDLFs) and CD14+ monocytes; test: hPDLF / CD14+ monocyte trans-well co-culture, ELISA of supernatants; format: cell-based
Description: Culture primary human periodontal-ligament fibroblasts ([…]) and autologous CD14^+ monocytes in a trans-well co-culture that recapitulates the paracrine crosstalk driving osteoclastogenesis. After 24 h equilibration, expose triplicate wells to: (i) vehicle (0.1% DMSO); […] At 48 h collect supernatants and lysates. • a. […] Secondary Read-Outs: • a.

[4] = tested on: RAW 264.7 pre-osteoclasts; test: Osteoclastogenesis: hPDLC medium on RAW 264.7 pre-osteoclasts, TRAP staining; format: cell-based
[5] = tested on: hPDLF / CD14+ monocyte co-culture; test: TRAP-positive multinucleated osteoclasts on bone slices after seven-day co-culture; format: cell-based, human
Description: Culture primary human periodontal-ligament fibroblasts (hPDLFs) and autologous CD14^+ monocytes in a trans-well co-culture that recapitulates the paracrine crosstalk driving osteoclastogenesis. […] At 48 h collect supernatants and lysates.
• a. […] Secondary Read-Outs: • a.

hPDLF monolayers = test: Scratch-wound closure in hPDLF monolayers; format: cell-based, human; settings: over 24 h after treatment
[6] = tested on: human periodontal ligament cells (hPDLCs); test: IL-1β and TNF-α in supernatant (ELISA) of LPS-challenged hPDLCs under CoCl2; format: cell-based; settings: 2 μM simvastatin, LPS 1 μg/ml, vs LPS-Veh

In the case of `CS(=O)(=O)c1ccc(Oc2cc(F)cc(C#N)c2)c2c1[C@H](O)[C@H](F)[C@@H]2F` [Belzutifan, belzutifan], the “Viability (% of No-Stim)” value [1] is listed as > 90%, the “solubility in DMSO” value ([2]; DMSO, 25° C.) is listed as “≈ 77 mg mL-1” and the solubility in ethanol ([2]; ethanol) is listed as “sparingly soluble”. The solubility in water ([2]; water across pH 1-8) was “practically insoluble”, the “cut of RANKL and pro-inflammatory cytokines versus vehicle” value ([3]; ELISA at 48 h, belzutifan 0.1, 1, 10 nM) was ≥ 70% and the “VEGF preserved, of VEGF seen in vehicle” value ([3]; VEGF-A secretion, 48 h) was ≥ 80%. For the same compound, the “reduction in osteoclast formation” value ([4]; at 1%) was ≥ 65%, the “cut of osteoclast formation” value ([5]; at 1 nM) was > 60% and the scratch-wound closure kinetics (hPDLF monolayers) was “retain normal closure kinetics”.

In the case of `COC(=O)CNC(=O)C(=O)OC` [DMOG], the “effect on osteoclast formation” value ([5]; DMOG 1 mM) is reported as “increases”.

For `CCC(C)(C)C(=O)O[C@H]1C[C@@H](C)C=C2C=C[C@H](C)[C@H](CC[C@@H]3C[C@@H](O)CC(=O)O3)[C@H]21` [SIMV, simvastatin], the “TRAP+ osteoclasts (cells per well)” value ([4]; 2 μM simvastatin) was 85 cells per well, the “IL-1β (24 h), decrease (↓)” value [6] was “↓ 25%” and the “TNF-α (24 h), decrease (↓)” value [6] was “↓ 20%”.

— patent publication US12409160B1, “Compositions and methods for treatment of peri-implantitis and periodontitis” (Cusp Biosciences, Inc., priority 2025, dated 2025)
